From US20130252988A1, “COMPOSITIONS AND METHODS FOR TREATING MYELOFIBROSIS” (TARGEGEN, INC., priority 2010, published 2013)
“Also recorded” adds a separate entry of the source. Counter-ions that a name gives are not always drawn. Like-named read-outs stand apart in the source and are kept apart here.

How the values were obtained:
Assay type in all cases: in vivo, human
[1] = test system: IL-6, IL-8, IL-2 and TNF-a; assay: Cytokine levels, multiplexed sandwich ELISAs
Procedure: Samples for cytokine measurement were collected at baseline and every 4 weeks thereafter. Cytokine levels were measured using multiplexed sandwich ELISAs (Millipore, St. Charles, Mo.).

bone marrow = assay: Bone marrow histology (cellularity, fibrosis)
Procedure: (§1) Responses were measured every 4 weeks per International Working Group for MPN Research and Treatment (IWG-MRT) criteria (Tefferi A et al., Blood 108:1497-1503, 2006). Assessment of bone marrow histology was performed at baseline and every 24 weeks of therapy. Changes in JAK2V617F allele burden in the granulocyte fraction of peripheral blood were measured as previously described (Kittur J et al., Cancer 109:2279-2284, 2007); the assessments were at baseline and every 4 weeks during the first 6 cycles, and every 6th cycle of therapy in the extension study.

[2] = Plasma pharmacokinetics of TG101348, non-compartmental analysis; details: for AUC(0-t) / Cmax / half-life / Tmax: human, plasma; for Tmax: median
Procedure: The concentration-time curves of TG101348 in plasma were evaluated by a non-compartmental analysis (with the use of WinNonlin® software, version 5.2).

[3] = test system: subjects with myelofibrosis (palpable splenomegaly); assay: Palpable spleen size / splenomegaly response (IWG-MRT criteria); set-up: Clinical improvement (IWG response), subjects by 20 weeks: reference not given here; details: for Subjects with =50% decrease in palpable spleen size persistent for at least 8 weeks (Clinical Improvement, CI) / Subjects with a minimum 25% decrease in palpable spleen size: by cycle 6; for Subjects with a minimum 25% decrease in palpable spleen size: intent-to-treat; for Subjects with spleen response (CI): by cycle 12
Procedure: as §1

WBC count = assay: Leukocytosis: WBC count; details: for Subjects who achieved a normal WBC count: following 6 cycles; for Subjects with normal WBC counts: following 12 cycles
[4] = Body weight during study treatment
[5] = oral, 30 mg/day (n = 3), multiple daily doses, Cycle 1, Day 28, mean
[6] = oral, 60 mg/day (n = 3), multiple daily doses, Cycle 1, Day 28, mean
[7] = oral, 120 mg/day (n = 3), multiple daily doses, Cycle 1, Day 28, mean
[8] = oral, 240 mg/day (n = 3), multiple daily doses, Cycle 1, Day 28, mean
[9] = oral, 360 mg/day (n = 3), multiple daily doses, Cycle 1, Day 28, mean
[10] = oral, 520 mg/day (n = 3), multiple daily doses, Cycle 1, Day 28, mean
[11] = oral, 680 mg/day (n = 27), multiple daily doses, Cycle 1, Day 28, mean
[12] = oral, 800 mg/day (n = 5), multiple daily doses, Cycle 1, Day 28, mean
[13] = over a 27-fold increase in dose
[14] = 680 mg/day starting dose (N=37)
[15] = MTD cohort, subjects who completed 6 cycles

Cc1cnc(Nc2ccc(OCCN3CCCC3)cc2)nc1Nc1cccc(S(=O)(=O)NC(C)(C)C)c1 [TG101348, N-tert-butyl-3-[(5-methyl-2-{[4-(2-pyrrolidin-1-ylethoxy)phenyl]amino}pyrimidin-4-yl)amino]benzenesulfonamide dihydrochloride monohydrate]
Serum EPO and TPO levels relative to baseline ([1]; after treatment initiation, data not shown): increases in serum EPO and to a lesser extent TPO levels
Absolute difference in IL-2 from baseline ([1]; cycle 6, 1 subject (101-039)): -1827 pg/mL
Absolute difference in IL-6 from baseline ([1]; cycle 6, 1 subject (101-039)): -4719 pg/mL
Effect on levels of pro-inflammatory cytokines (IL-6, IL-2, IL-8, TNF-a) ([1]; relative to baseline during treatment, dihydrochloride monohydrate): no significant changes on cytokine levels; also recorded: minimal effect on serum levels of proinflammatory cytokines; also recorded: no consistent changes
Bone marrow fibrosis grade (bone marrow; after 18 cycles, person, V617F negative PMF, 3+ at baseline, starting dose 240, follow-up 440 mg/day): 0
Bone marrow cellularity (bone marrow; after 18 cycles, person, V617F negative PMF, 60% at baseline, starting dose 30, follow-up 520 mg/day): 5-10%
BM cellularity and reticulin fibrosis with extended treatment (bone marrow; preliminary observations): reduction in BM cellularity and reticulinfibrosis
Dose proportionality of plasma PK parameters (Cmax and AUC0-t) ([2]; 30 to 800 mg/day): greater than dose-proportional increases
AUC(0-t) [2, 5]: 807 ng·h/mL
Cmax [2, 5]: 81.8 ng/mL
half-life ([2]; oral, 30 mg/day (n = 3), multiple daily doses, Cycle 1, Day 28, mean, read-out: T1/2 (terminal half-life) (converted)): 20.9 h
Tmax ([2]; oral, 30 mg/day (n = 3), multiple daily doses, Cycle 1, Day 28): 2 h
AUC(0-t) [2, 6]: 2430 ng·h/mL
Cmax [2, 6]: 257 ng/mL
half-life ([2]; oral, 60 mg/day (n = 3), multiple daily doses, Cycle 1, Day 28, mean, read-out: T1/2 (terminal half-life) (converted)): 15.7 h
Tmax ([2]; oral, 60 mg/day (n = 3), multiple daily doses, Cycle 1, Day 28): 1 h
AUC(0-t) [2, 7]: 7650 ng·h/mL
Cmax [2, 7]: 557 ng/mL
half-life ([2]; oral, 120 mg/day (n = 3), multiple daily doses, Cycle 1, Day 28, mean, read-out: T1/2 (terminal half-life) (converted)): 24.4 h
Tmax ([2]; oral, 120 mg/day (n = 3), multiple daily doses, Cycle 1, Day 28): 2 h
AUC(0-t) [2, 8]: 26200 ng·h/mL
Cmax [2, 8]: 1800 ng/mL
half-life ([2]; oral, 240 mg/day (n = 3), multiple daily doses, Cycle 1, Day 28, mean, read-out: T1/2 (terminal half-life) (converted)): 20.8 h
Tmax ([2]; oral, 240 mg/day (n = 3), multiple daily doses, Cycle 1, Day 28): 2 h
AUC(0-t) [2, 9]: 23900 ng·h/mL
Cmax [2, 9]: 1720 ng/mL
half-life ([2]; oral, 360 mg/day (n = 3), multiple daily doses, Cycle 1, Day 28, mean, read-out: T1/2 (terminal half-life) (converted)): 21.4 h
Tmax ([2]; oral, 360 mg/day (n = 3), multiple daily doses, Cycle 1, Day 28): 2 h
AUC(0-t) [2, 10]: 61700 ng·h/mL
Cmax [2, 10]: 3890 ng/mL
half-life ([2]; oral, 520 mg/day (n = 3), multiple daily doses, Cycle 1, Day 28, mean, read-out: T1/2 (terminal half-life) (converted)): 20.9 h
Tmax ([2]; oral, 520 mg/day (n = 3), multiple daily doses, Cycle 1, Day 28): 4 h
AUC(0-t) [2, 11]: 55100 ng·h/mL
Cmax [2, 11]: 3060 ng/mL
half-life ([2]; oral, 680 mg/day (n = 27), multiple daily doses, Cycle 1, Day 28, mean, read-out: T1/2 (terminal half-life) (converted)): 33.7 h
Tmax ([2]; oral, 680 mg/day (n = 27), multiple daily doses, Cycle 1, Day 28): 4 h
AUC(0-t) [2, 12]: 70800 ng·h/mL
Cmax [2, 12]: 4380 ng/mL
half-life ([2]; oral, 800 mg/day (n = 5), multiple daily doses, Cycle 1, Day 28, mean, read-out: T1/2 (terminal half-life) (converted)): 24 h
Tmax ([2]; oral, 800 mg/day (n = 5), multiple daily doses, Cycle 1, Day 28): 2.25 h
half-life ([2]; oral, across all doses, read-out: Terminal phase half-life at steady state): 16 to 34 h
Time after dosing at which peak plasma concentration was achieved ([2]; oral, once daily): 1 to 4 h
Increase in mean steady-state AUC0-t [2, 13]: ~88 fold
Increase in mean steady-state Cmax [2, 13]: approximately 54 fold
Clinical improvement (IWG response), subjects by 12 weeks [3, 14]: 56%
Clinical improvement (IWG response), subjects by 20 weeks [3, 14]: 100%
Subjects who achieved clinical improvement based on reduction of palpable splenomegaly (IWG response) [3, 14]: 49%
Complete response of splenomegaly ([3]; Example 2 conclusions): ~30%
Proportion achieving =50% reduction in palpable splenomegaly ([3]; Example 2 conclusions): two-thirds
Mean (standard deviation) duration of spleen response per IWG-MRT criteria ([3]; MTD cohort): 288 (±76) days
Median time to CI ([3]; MTD cohort, range 41-170): 113 days
Subjects in whom the spleen became non palpable [3, 15]: 31%
Subjects with =25% reduction in palpable spleen size [3, 15]: 90%
Subjects with =50% reduction in palpable spleen size [3, 15]: 66%
Subjects with JAK2V617F-negative MF who achieved CI ([3]; Three of 4 subjects who completed 6 cycles): 75%
Median time to CI ([3]; across doses, range 41 to 171): 141 days
Patients with reduction in palpable spleen size of at least 50% ([3]; at 3 months, 33 patients who started at =680 mg and completed at least 3 cycles, 22 patients): 67%
Patients in whom the spleen became non-palpable ([3]; at 3 months, 33 patients who started at =680 mg, 9 patients): 27%
Relapse or disease progression ([3]; at the time of data collection (Example 2)): no relapse or disease progression
Subjects with =50% decrease in palpable spleen size persistent for at least 8 weeks (Clinical Improvement, CI) ([3]; MTD cohort): 45%
Subjects with a minimum 25% decrease in palpable spleen size ([3]; MTD cohort): 65%
Subjects with =50% decrease in palpable spleen size persistent for at least 8 weeks (Clinical Improvement, CI) ([3]; overall): 39%
Subjects with a minimum 25% decrease in palpable spleen size ([3]; overall (36 subjects)): 61%
Subjects with spleen response (CI) ([3]; MTD cohort): 50%
Subjects with spleen response (CI) ([3]; overall): 48%
Lowest starting dose at which CI was observed ([3]; in vivo): 240 mg/day
Palpable spleen size after treatment ([3]; one subject with JAK2V617F-positive PMF, started at 680 mg/day, 9 cm before): 0 cm
Mean (standard deviation) duration of spleen response per IWG-MRT criteria ([3]; overall): 315 (±129) days
Onset of spleen response ([3]; rapid, generally seen within): ≤ 2 cycles
Patients with a normal WBC count at last follow-up visit (WBC count; Example 1, leukocytosis at baseline, started at =680 mg): 70%
Subjects with normal WBC counts at follow-up visit (WBC count; Example 2, baseline WBC count >11×10^9/L): 73%
Anti-myeloproliferation activity: resolution of leukocytosis and thrombocytosis (WBC count; Example 2 conclusions): virtually all treated subjects experiencing complete resolution of leukocytosis and thrombocytosis
Subjects who achieved a normal WBC count (WBC count; MTD cohort (13 of 18)): 72%
Subjects who achieved a normal WBC count (WBC count; across doses (16 of 28 with baseline leukocytosis)): 57%
Subjects with normal WBC counts (WBC count; MTD cohort (10 of 17)): 59%
Subjects with normal WBC counts (WBC count; across doses (14 of 25)): 56%
Weight, change from baseline, median ([4]; 6 Cycles, MTD Cohort (n = 28)): 0.6 kg
Weight, median ([4]; 6 Cycles, MTD Cohort (n = 28)): 77.7 kg
Weight, change from baseline, median ([4]; 6 Cycles, Overall (n = 43)): 0.4 kg
Weight, median ([4]; 6 Cycles, Overall (n = 43)): 76.9 kg
Weight, change from baseline, median ([4]; 12 Cycles, MTD Cohort (n = 26)): 0.35 kg
Weight, median ([4]; 12 Cycles, MTD Cohort (n = 26)): 76.5 kg
Weight, change from baseline, median ([4]; 12 Cycles, Overall (n = 36)): 0.7 kg
Weight, median ([4]; 12 Cycles, Overall (n = 36)): 76.1 kg
Median body weight relative to baseline ([4]; end of 6 and 12 cycles, overall and MTD cohorts): stable relative to baseline
